Experimental data reported in ChEMBL document CHEMBL3228010, “Potential antitumor agents. 29. Quantitative structure-activity relationships for the antileukemic bisquaternary ammonium heterocycles” (J Med Chem, 1979).
Values joined by “and” are separate entries in the source; they are usually repeats but may differ in a detail not shown here. Equal values may be shown once.

Experiments:
[1] = system: Mus musculus; assay: Toxicity in ip dosed C3H X DBA2 F1 hybrid mouse […] with mouse L1210 cells on day 0 and dosed once daily on days 1 to 5 measured after 50 days; type: organism-based; settings: in vivo, 1200 h
[2] = Displacement of ethidium from poly[d(G-C)]-poly[d(G-C)] DNA (unknown origin) by fluorimetric method
[3] = Lipophilic-hydrophilic balance, Rm of the compound by partition chromatography; type: physicochemical
[4] = system: L1210; assay: Antitumor activity against mouse L1210 cells […] in ip dosed C3H X DBA2 F1 hybrid mouse on day 0 and dosed at LD10 level once daily on days 1 to 5 assessed as increase in life span relative to control; type: functional
[5] = Displacement of ethidium from poly[d(A-T)]-poly[d(A-T)] DNA by fluorimetric method
[6] = species on record: Bos taurus; assay: Displacement of ethidium from calf thymus DNA by fluorimetric method
[7] = system: L1210; assay: Antitumor activity against mouse L1210 cells […] in ip dosed C3H X DBA2 F1 hybrid mouse on day 0 and dosed once daily on days 1 to 5 assessed as increase in life span relative to control; type: functional

Row | SMILES | LD10 [1] [mg/kg] | C50 [2] | Rm [3] | log(ILSmax) [4] | C50 [5] | C50 [6] | D40 [7] [mg/kg]
1 | CCC[n+]1ccc(Nc2ccc(NC(=O)c3ccc(Nc4cc[n+](CCC)c5ccccc45)cc3)cc2)cc1.[Br-].[Br-] | 15 | 3 µM | 0.74 | 1.81 | 0.2 µM | 2.3 µM | 8.8
2 | C[n+]1cccc(NC(=O)c2ccc(NC(=O)c3ccc(C(=O)Nc4ccc(C(=O)Nc5ccc[n+](C)c5)c(N)c4)cc3)cc2N)c1.Cc1ccc(S(=O)(=O)[O-])cc1.Cc1ccc(S(=O)(=O)[O-])cc1 | 44 | 0.39 µM | -0.75 | 2.35 | 0.12 µM | 0.26 µM | 2.4
3 | Cn1cc(NC(=O)c2cc(NC(=O)c3cc(NC=O)cn3C)cn2C)cc1C(=O)NCCC(=N)N |  | 2.4 µM |  |  | 0.07 µM | 0.68 µM | 
4 | Cc1cc(C(=O)Nc2ccc(C(=O)Nc3ccc[n+](C)c3)cc2)c(C)cc1C(=O)Nc1ccc(C(=O)Nc2ccc[n+](C)c2)cc1.Cc1ccc(S(=O)(=O)[O-])cc1.Cc1ccc(S(=O)(=O)[O-])cc1 | 1.7 | 14 µM | 0.48 | 1.43 | 8.1 µM | 7.8 µM | 
5 | Cc1cc(Nc2ccc(NC(=O)c3ccc(C(=O)Nc4ccc(C(=O)Nc5ccc[n+](C)c5)cc4)cc3)cc2)nc(N)[n+]1C.[I-].[I-] | 20 | 0.49 µM | -0.6 | <1.4 | 0.26 µM | 0.4 µM | 
6 | C/C(=C(/C)c1ccc(Nc2cc[n+](C)c3ccc(N)cc23)cc1)c1ccc(Nc2cc[n+](C)cc2)cc1.[Cl-].[Cl-] | 5.5 | 2.6 µM | 0.96 | 1.53 | 0.9 µM | 1.7 µM | 
7 | C[n+]1ccc(Nc2ccc(C(=O)Nc3ccc(Nc4cc[n+](C)c5ccccc45)cc3N)cc2)cc1.[Br-].[Br-] | 7 | 2.05 µM | 0.35 | <1.4 | 0.64 µM | 1.87 µM | 
8 | CCCC[n+]1ccc(Nc2ccc(NC(=O)c3ccc(Nc4cc[n+](CCCC)c5ccccc45)cc3)cc2)cc1.[Br-].[Br-] | 11 | 2.8 µM | 1.14 | <1.4 | 0.19 µM | 2.1 µM | 
9 | CCC[n+]1ccccc1-c1ccc(NC(=O)c2ccc(C(=O)Nc3ccc(-c4cccc[n+]4CCC)cc3)cc2)cc1.Cc1ccc(S(=O)(=O)[O-])cc1.Cc1ccc(S(=O)(=O)[O-])cc1 | 11 | 2.9 µM | 0.4 | <1.4 | 0.83 µM | 2.2 µM | 
10 | C[n+]1cccc(NC(=O)c2ccc(NC(=O)c3ccc(C(=O)Nc4ccc(C(=O)Nc5ccc[n+](C)c5)c(Cl)c4)cc3)cc2Cl)c1.Cc1ccc(S(=O)(=O)[O-])cc1.Cc1ccc(S(=O)(=O)[O-])cc1 | 26 | 2.1 µM | 0.2 | <1.4 | 0.99 µM | 1.4 µM | 
11 | C[n+]1ccc(Nc2ccc(NC(=O)CCCCCC(=O)Nc3ccc(Nc4cc[n+](C)cc4)cc3)cc2)cc1.[Br-].[Br-] | 30 | 77 µM | 0.49 | <1.4 | 22 µM | 42 µM | 
12 | C[n+]1ccc(Nc2ccc(NC(=O)c3ccc(Nc4nc[n+](C)c5ccc(N)cc45)cc3)cc2)cc1.Cc1ccc(S(=O)(=O)[O-])cc1.Cc1ccc(S(=O)(=O)[O-])cc1 | 3 | 1.7 µM | 0.13 | <1.4 | 0.5 µM | 0.88 µM | 
13 | CCCCC[n+]1cccc(NC(=O)c2ccc(NC(=O)c3ccc(C(=O)Nc4ccc(C(=O)Nc5ccc[n+](CCCCC)c5)cc4)cc3)cc2)c1.Cc1ccc(S(=O)(=O)[O-])cc1.Cc1ccc(S(=O)(=O)[O-])cc1 | 70 | 0.92 µM | 0.9 | <1.4 | 0.42 µM | 0.38 µM | 
14 | C[n+]1ccc(Nc2ccc(NC(=O)c3ccc(C(=O)Nc4ccc(C(=O)Nc5ccc[n+](C)c5)cc4)cc3)cc2)cc1 |  | 0.97 µM and 1.35 µM |  |  | 0.34 µM and 0.44 µM | 0.63 µM and 0.84 µM | 
15 | CC[n+]1ccc(Nc2ccc(NC(=O)c3ccc(C(=O)Nc4ccc(Nc5cc[n+](CC)cc5)cc4)cc3)cc2)cc1.Cc1ccc(S(=O)(=O)[O-])cc1.Cc1ccc(S(=O)(=O)[O-])cc1 | 2.5 |  | 0.46 | 2.24 |  |  | 0.5
16 | CC[n+]1ccc(Nc2ccc(NC(=O)c3ccc(C(=O)Nc4ccc(Nc5cc[n+](CC)c(N)n5)cc4)cc3)cc2)nc1N.Cc1ccc(S(=O)(=O)[O-])cc1.Cc1ccc(S(=O)(=O)[O-])cc1 | 112 |  | -0.3 | 2.06 |  |  | 10
17 | CC[n+]1ccc(-c2ccc(-c3ccc(-c4ccc(NC(=O)c5ccc(C(=O)Nc6ccc(-c7ccc(-c8ccc(-c9cc[n+](CC)cc9)cc8)cc7)cc6)cc5)cc4)cc3)cc2)cc1.Cc1ccc(S(=O)(=O)[O-])cc1.Cc1ccc(S(=O)(=O)[O-])cc1 | 14 |  | 0.09 | 2.23 |  |  | 1.2
18 | C[n+]1ccc(Nc2ccc(NC(=O)CCCCCCC(=O)Nc3ccc(Nc4cc[n+](C)cc4)cc3)cc2)cc1.[Br-].[Br-] | 30 | 75 µM | 0.59 | <1.4 | 20 µM | 40 µM | 
19 | CCC[n+]1cccc2cc(NC(=O)COc3ccc(C(=O)Nc4ccc5c(ccc[n+]5CCC)c4)cc3)ccc21.Cc1ccc(S(=O)(=O)[O-])cc1.Cc1ccc(S(=O)(=O)[O-])cc1 | 8.3 |  | 0.15 | 1.59 |  |  | 6.3
20 | CCCC[n+]1cccc2cc(NC(=O)c3ccc(C(=O)Nc4ccc5c(ccc[n+]5CCCC)c4)cc3)ccc21.Cc1ccc(S(=O)(=O)[O-])cc1.Cc1ccc(S(=O)(=O)[O-])cc1 | 59 |  | 0.67 | 2.04 |  |  | 25
21 | CC[n+]1cccc2ccc(NC(=O)c3ccc(NC(=O)c4ccc(C(=O)Nc5ccc6ccc[n+](CC)c6c5)cc4)cc3)cc21.Cc1ccc(S(=O)(=O)[O-])cc1.Cc1ccc(S(=O)(=O)[O-])cc1 | 30 |  | -0.4 | 2 |  |  | 12
22 | Cc1c[n+](C)c2ccccc2c1Nc1ccc(C(=O)Nc2ccc(Nc3cc[n+](C)cc3)cc2)cc1.[Br-].[Br-] | 5 | 15 µM | 0.6 | <1.4 | 4.5 µM | 4.9 µM | 
23 | C[n+]1cccc(NC(=O)c2ccc(NC(=O)c3ccc(C(=O)Nc4ccc5c(ccc[n+]5C)c4)cc3)cc2)c1.Cc1ccc(S(=O)(=O)[O-])cc1.Cc1ccc(S(=O)(=O)[O-])cc1 | 27 |  | -0.25 | 2.03 |  |  | 12
24 | C[n+]1ccc(Nc2ccc(NC(=O)c3ccc(C(=O)Nc4ccc(C(=O)Nc5ccc[n+](C)c5)cc4)cc3)cc2)cc1.Cc1ccc(S(=O)(=O)[O-])cc1.Cc1ccc(S(=O)(=O)[O-])cc1 | 9 |  | 0.07 | 2.03 |  |  | 0.8
